Each structure is given as a SMILES string. pIC50: −log10 of the molar value. Structures can show the parent of a compound that is named as a salt.

The test concerns the target T1, hNav1.7 (Homo sapiens, UniProt Q15858).
T1 construct: expressed in transfected cells
In words: Tritiated compound binding (LBA) to membranes from cells expressing hNav1.7 and the β1 subunit, competitive binding. Particulars: competitive binding vs 100 pM [3H]compound, 18 h, room temperature, membranes with hNav1.7 and β1 subunit. The procedure:
Tritiated Compound Binding to Membranes
Isolated from Cells that Heterologously Express hNav1.7 and the β1 Subunit
Preparation of membranes containing recombinantly expressed sodium channels: Frozen recombinant cell pellets were thawed on ice and diluted to 4 times the cell pellet weight with ice cold 50 mM Tris HCl, pH 7.4 buffer. The cell suspensions were homogenized on ice using a motorized glass dounce homogeniser. […] The supernatants were collected and centrifuged at 10000×g at 4° C. for 50 min. The pellets were then re-suspended in 100 mM NaCl, 20 mM Tris HCl, pH 7.4 buffer containing 1% v/v protease inhibitors (Calbiochem) and re-homogenized on ice. The homogenized membranes were then processed through a syringe equipped with a 26 gauge needle. Protein concentrations were determined by Bradford Assay and the membranes were stored at −80° C.
Saturation experiments. A representative compound of formula (I) having a methyl group was tritiated. Three tritiums were incorporated in place of methyl hydrogens to generate [^3H]compound. Binding of this radioligand was performed in 5 mL borosilicate glass test tubes at room temperature. Binding was initiated by adding membranes to increasing concentrations of [^3H]compound in 100 mM NaCl, 20 mM Tris HCl, pH 7.4 buffer containing 0.01% w/v bovine serum albumin (BSA) for 18 h. Non-specific binding was determined in the presence of 1 μM unlabeled compound. After 18 h, the reactants were filtered through GF/C glass fiber filters presoaked in 0.5% w/v polyethylene imine. […] [^3H]compound bound to filters was quantified by liquid scintillation counting.
Binding reactions were performed in 96-well polypropylene plates at room temperature for 18 h. In 360 μL, membranes were incubated with 100 pM [^3H]compound and increasing concentrations of Test Compound. Non-specific binding was defined in the presence of 1 μM unlabeled compound. Reactions were transferred and filtered through 96-well glass fiber/C filter plates presoaked with 0.5% polyethylene imine. […] Bound radioactivity was determined by liquid scintillation counting.
Data Analysis: For saturation experiments, non-specific binding was subtracted from total binding to provide specific binding and these values were recalculated in terms of pmol ligand bound per mg protein. Saturation curves were constructed and dissociation constants were calculated using the single site ligand binding model: Beq=(Bmax*X)/(X+Kd), where Beq is the amount of ligand bound at equilibrium, Bmax is the maximum receptor density, Kd is the dissociation constant for the ligand, and X is the free ligand concentration. For competition studies percent inhibition was determined and IC50 values were calculated using a 4 parameter logistic model (% inhibition=(A+((B−A)/(1+((x/C)^D)))) using XLfit, where A and B are the maximal and minimum inhibition respectively, C is the IC50 concentration and D is the (Hill) slope.

T1 sequence (Q15858 1-1977 isoform Q15858-3): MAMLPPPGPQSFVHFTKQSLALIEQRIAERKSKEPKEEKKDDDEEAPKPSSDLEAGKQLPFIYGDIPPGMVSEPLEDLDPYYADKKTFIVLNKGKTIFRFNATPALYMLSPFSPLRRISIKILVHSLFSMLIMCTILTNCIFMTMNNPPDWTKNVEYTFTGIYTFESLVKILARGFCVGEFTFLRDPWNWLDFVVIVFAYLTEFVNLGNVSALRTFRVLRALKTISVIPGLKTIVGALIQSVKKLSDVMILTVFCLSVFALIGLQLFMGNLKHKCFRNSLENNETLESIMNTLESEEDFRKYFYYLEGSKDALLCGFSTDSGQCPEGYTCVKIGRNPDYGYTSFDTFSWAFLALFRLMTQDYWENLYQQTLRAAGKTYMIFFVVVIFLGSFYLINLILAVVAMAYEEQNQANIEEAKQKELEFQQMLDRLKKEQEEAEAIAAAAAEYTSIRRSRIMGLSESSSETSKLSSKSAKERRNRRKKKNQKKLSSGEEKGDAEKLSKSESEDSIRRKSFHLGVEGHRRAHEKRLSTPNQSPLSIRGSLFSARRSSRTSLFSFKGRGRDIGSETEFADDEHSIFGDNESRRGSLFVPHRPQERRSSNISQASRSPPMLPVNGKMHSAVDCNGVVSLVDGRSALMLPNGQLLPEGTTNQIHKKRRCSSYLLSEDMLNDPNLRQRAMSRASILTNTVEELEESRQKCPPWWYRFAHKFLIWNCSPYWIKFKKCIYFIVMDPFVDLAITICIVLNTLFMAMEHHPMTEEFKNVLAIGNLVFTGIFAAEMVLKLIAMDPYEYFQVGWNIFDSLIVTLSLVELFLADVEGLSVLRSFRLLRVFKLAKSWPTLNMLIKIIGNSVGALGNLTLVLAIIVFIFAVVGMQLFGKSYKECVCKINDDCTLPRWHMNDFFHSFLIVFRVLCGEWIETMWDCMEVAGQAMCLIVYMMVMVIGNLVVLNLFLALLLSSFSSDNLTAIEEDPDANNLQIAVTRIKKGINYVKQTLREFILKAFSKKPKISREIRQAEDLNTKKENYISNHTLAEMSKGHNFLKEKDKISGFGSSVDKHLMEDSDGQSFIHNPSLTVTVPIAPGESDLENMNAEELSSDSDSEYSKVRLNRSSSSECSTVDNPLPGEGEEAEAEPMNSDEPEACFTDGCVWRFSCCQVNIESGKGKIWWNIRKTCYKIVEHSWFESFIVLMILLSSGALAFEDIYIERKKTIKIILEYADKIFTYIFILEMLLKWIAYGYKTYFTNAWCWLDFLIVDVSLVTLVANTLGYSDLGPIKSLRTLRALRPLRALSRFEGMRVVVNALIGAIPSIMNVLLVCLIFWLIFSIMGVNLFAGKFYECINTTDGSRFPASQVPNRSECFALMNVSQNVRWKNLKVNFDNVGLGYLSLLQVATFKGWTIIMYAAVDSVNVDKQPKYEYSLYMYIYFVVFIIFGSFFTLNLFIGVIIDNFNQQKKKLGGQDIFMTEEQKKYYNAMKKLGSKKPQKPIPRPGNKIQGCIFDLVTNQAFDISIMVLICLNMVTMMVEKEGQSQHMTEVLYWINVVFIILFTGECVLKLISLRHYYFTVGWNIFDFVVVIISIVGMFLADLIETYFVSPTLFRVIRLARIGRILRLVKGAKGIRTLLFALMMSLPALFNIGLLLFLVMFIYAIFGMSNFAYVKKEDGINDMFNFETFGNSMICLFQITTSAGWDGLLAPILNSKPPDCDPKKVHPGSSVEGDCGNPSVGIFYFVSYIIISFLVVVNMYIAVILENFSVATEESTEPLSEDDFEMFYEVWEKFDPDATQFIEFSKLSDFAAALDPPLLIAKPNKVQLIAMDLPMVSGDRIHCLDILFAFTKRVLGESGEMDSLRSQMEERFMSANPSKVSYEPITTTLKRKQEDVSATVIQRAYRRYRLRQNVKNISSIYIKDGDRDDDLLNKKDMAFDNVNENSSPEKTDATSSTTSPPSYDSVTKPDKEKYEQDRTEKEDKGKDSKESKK
T1 sequence (Q07699 19-218 partner): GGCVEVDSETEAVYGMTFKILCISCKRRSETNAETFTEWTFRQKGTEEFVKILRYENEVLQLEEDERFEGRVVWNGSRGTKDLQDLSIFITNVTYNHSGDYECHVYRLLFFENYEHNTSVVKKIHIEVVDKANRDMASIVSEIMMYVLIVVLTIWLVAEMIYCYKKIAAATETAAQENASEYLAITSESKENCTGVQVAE

Consider `O=C(O)[C@H]1CCCN1C(=O)c1cc(C2CC2)c(OCC23CC4CC(CC(C4)C2)C3)cc1F` [Example 2, (R)-1-(4-(adamantan-1-ylmethoxy)-5-cyclopropyl-2-fluorobenzoyl)pyrrolidine-2-carboxylic acid], for which the pIC50 (usually the IC50 on a negative log10 scale, so that one unit is a factor of ten) is 6.37.
As for `CC12CC3(C)CC(C)(C1)CC(COc1cc(F)c(C(=O)N4CCC[C@H]4C(=O)O)cc1C1CC1)(C2)C3` [Example 3, (S)-1-(5-cyclopropyl-2-fluoro-4-((3,5,7-trimethyladamantan-1-yl)methoxy)benzoyl)pyrrolidine-2-carboxylic acid], the pIC50 is 8.05.
As for `O=C(O)[C@@H]1CCCN1C(=O)c1cc(C2CC2)c(OCC23CC4(F)CC(F)(CC(F)(C4)C2)C3)cc1F` [Example 4, (5)-1-(5-cyclopropyl-2-fluoro-4-((3,5,7-trifluoroadamantan-1-yl)methoxy)benzoyl)pyrrolidine-2-carboxylic acid], the pIC50 was 6.09. This pIC50 is 1.96 log units lower than that of the molecule before.
The molecule `O=C(O)[C@@H]1CCCN1C(=O)c1cc(C2CC2)c(CN2CCO[C@H](Cc3cc(Cl)cc(Cl)c3)C2)cc1F` [Example 5, (S)-1-(5-cyclopropyl-4-(((R)-2-(3,5-dichlorobenzyl)morpholino)methyl)-2-fluorobenzoyl)pyrrolidine-2-carboxylic acid trifluoroacetic acid salt] gave a pIC50 of 6.33.
Consider `CN(C(=O)c1cc(C2CC2)c(OCC23CC4CC(CC(C4)C2)C3)cc1F)C1(C(=O)O)CC1` [Example 7, 1-(4-(adamantan-1-ylmethoxy)-5-cyclopropyl-2-fluoro-N-methylbenzamido)-cyclopropanecarboxylic acid], for which the pIC50 was 5.52.
For the molecule `CC(C)(NC(=O)c1cc(C2CC2)c(OCC23CC4CC(CC(C4)C2)C3)cc1F)C(=O)O` [Example 8, 2-(4-(adamantan-1-ylmethoxy)-5-cyclopropyl-2-fluorobenzamido)-2-methylpropanoic acid], the pIC50 is 5.77. This pIC50 is 0.25 log units higher than that of the molecule before.
Regarding `C[C@@H](Oc1ccc(Cl)c(Cl)c1)c1cc(F)c(C(=O)NC2(C(=O)O)CC2)cc1C1CC1` [Example 9, (R)-1-(5-cyclopropyl-4-(1-(3,4-dichlorophenoxy)ethyl)-2-fluorobenzamido)cyclopropanecarboxylic acid], the pIC50 is less than 5.00.
`COC[C@H](NC(=O)c1cc(C2CC2)c(OCC23CC4CC(CC(C4)C2)C3)cc1F)C(=O)O` [Example 10, (S)-2-(4-(adamantan-1-ylmethoxy)-5-cyclopropyl-2-fluorobenzamido)-3-methoxypropanoic acid] had a pIC50 of 6.17.
The molecule `CC1(COc2cc(F)c(C(=O)N3CCC[C@H]3C(=O)O)cc2C2CC2)CCC(F)(F)CC1` [Example 12, (S)-1-(5-cyclopropyl-4-((4,4-difluoro-1-methylcyclohexyl)methoxy)-2-fluorobenzoyl)pyrrolidine-2-carboxylic acid] showed a pIC50 of 6.01.
Consider `O=C(O)[C@@H]1CCCN1C(=O)c1cc(C2CC2)c(OCC2CCCCC2)cc1F` [Example 13, (S)-1-(4-(cyclohexylmethoxy)-5-cyclopropyl-2-fluorobenzoyl)pyrrolidine-2-carboxylic acid], for which the pIC50 is 6.76.
For the molecule `C[C@@H](Oc1ccc(Cl)c(Cl)c1)c1cc(F)c(C(=O)N2CCC[C@H]2C(=O)O)cc1C1CC1` [Example 14, (S)-1-(5-cyclopropyl-4-((R)-1-(3,4-dichlorophenoxy)ethyl)-2-fluorobenzoyl)pyrrolidine-2-carboxylic acid], the pIC50 was 5.63.
Consider `C[C@@H](Oc1cnc(C2CC2)c(Cl)c1)c1cc(F)c(C(=O)N2CCC[C@H]2C(=O)O)cc1C1CC1` [Example 15, (S)-1-(4-((R)-1-((5-chloro-6-cyclopropylpyridin-3-yl)oxy)ethyl)-5-cyclopropyl-2-fluorobenzoyl)pyrrolidine-2-carboxylic acid], for which the pIC50 is 5.16. Compared with the last molecule, the pIC50 is 0.47 log units lower.
`CC1(C)CCCC(COc2cc(F)c(C(=O)N3CCC[C@H]3C(=O)O)cc2C2CC2)C1` (stereo partly drawn) [Example 16, (2S)-1-(5-cyclopropyl-4-((3,3-dimethylcyclohexyl)methoxy)-2-fluorobenzoyl)pyrrolidine-2-carboxylic acid] showed a pIC50 of 7.40.
As for `CC(C)c1cc(C(=O)N2CCC[C@H]2C(=O)O)c(F)cc1OCC12CC3CC(CC(C3)C1)C2` [Example 17, (S)-1-(4-(adamantan-1-ylmethoxy)-2-fluoro-5-isopropylbenzoyl)pyrrolidine-2-carboxylic acid], the figure is 7.06; as for `O=C(O)[C@@H]1CCCN1C(=O)c1cc(C2CC2)c(O[C@H]2C3CC4CC2C[C@](F)(C4)C3)cc1F` [Example 18, (S)-1-(5-cyclopropyl-2-fluoro-4-(((1R,2s,3S,5R,7R)-5-fluoroadamantan-2-yl)oxy)benzoyl)pyrrolidine-2-carboxylic acid], 5.35; as for `O=C(O)[C@@H]1CCCN1C(=O)c1cc(C2CC2)c(CN2[C@@H]3CC[C@H]2C[C@@H](Oc2cc(Cl)cc(OC(F)(F)F)c2)C3)cc1F` [Example 19, (S)-1-(4-(((1R,3S,5S)-3-(3-chloro-5-(trifluoromethoxy)phenoxy)-8-azabicyclo[3.2.1]octan-8-yl)methyl)-5-cyclopropyl-2-fluorobenzoyl)pyrrolidine-2-carboxylic acid trifluoroacetic acid salt], 6.35.
On to `O=C(O)[C@@H]1CCCN1C(=O)c1cc(C2CC2)c(CN2CCC(Oc3cc(Cl)cc(OC(F)(F)F)c3)CC2)cc1F` [Example 20, (S)-1-(4-((4-(3-chloro-5-(trifluoromethoxy)phenoxy)piperidin-1-yl)methyl)-5-cyclopropyl-2-fluorobenzoyl)pyrrolidine-2-carboxylic acid trifluoroacetic acid salt], for which the pIC50 is 6.26.
`CC1(COc2cc(F)c(C(=O)N3CCC[C@H]3C(=O)O)cc2C2CC2)CN(c2cc(C(F)(F)F)c(Cl)cn2)C1` [Example 21, (S)-1-(4-((1-(5-chloro-4-(trifluoromethyl)pyridin-2-yl)-3-methylazetidin-3-yl)methoxy)-5-cyclopropyl-2-fluorobenzoyl)pyrrolidine-2-carboxylic acid trifluoroacetic acid salt]: the pIC50 is 6.44. The pIC50 values of the last two molecules are within 0.2 log units of each other.
Molecule `O=C(O)[C@@H]1CCCN1C(=O)c1cc(F)c(Oc2ccc(Cl)cc2-c2ccccc2)cc1F` [Example 22, (S)-1-(4-((5-chloro-[1,1′-biphenyl]-2-yl)oxy)-2,5-difluorobenzoyl)pyrrolidine-2-carboxylic acid] had a pIC50 of less than 5.00.
Consider `O=C(O)[C@@H]1CCCN1C(=O)c1ccc(OCC23CC4CC(CC(C4)C2)C3)c(Cl)c1` [Example 23, (S)-1-((4-(adamantan-1-ylmethoxy))-3-chlorobenzoyl)pyrrolidine-2-carboxylic acid], for which the negative logarithm of the IC50 (pIC50) was 5.40.
On to `O=C(O)[C@@H]1CCCN1C(=O)c1cc(Cl)c(Oc2cnc(OCC(F)(F)F)c(Cl)c2)cc1F` [Example 24, (S)-1-(5-chloro-4-((5-chloro-6-(2,2,2-trifluoroethoxy)pyridin-3-yl)oxy)-2-fluorobenzoyl)pyrrolidine-2-carboxylic acid trifluoroacetic acid salt], for which the pIC50 was 5.56.
`Nc1noc2ccc(-c3cc(Cl)ccc3Oc3cc(F)c(C(=O)N4CCC[C@H]4C(=O)O)cc3F)cc12` [Example 25, (S)-1-(4-(2-(3-aminobenzo[d]isoxazol-5-yl)-4-chlorophenoxy)-2,5-difluorobenzoyl)pyrrolidine-2-carboxylic acid trifluoroacetic acid] had a pIC50 of less than 5.00.
Molecule `O=C(O)[C@@H]1CCCN1C(=O)c1cc(C2CC2)c(OCC2CCN(C(c3ccccc3)c3cc(Cl)cc(Cl)c3)CC2)cc1F` (stereo partly drawn) [Example 26, (2S)-1-(5-cyclopropyl-4-((1-((3,5-dichlorophenyl)(phenyl)methyl)piperidin-4-yl)methoxy)-2-fluorobenzoyl)pyrrolidine-2-carboxylic acid trifluoroacetic acid salt] showed a pIC50 of 7.74.
With `O=C(O)[C@@H]1CCCN1C(=O)c1cc(C2CCC2)c(OCC23CC4CC(CC(C4)C2)C3)cc1F` [Example 27, (S)-1-(4-(adamantan-1-ylmethoxy)-5-cyclobutyl-2-fluorobenzoyl)pyrrolidine-2-carboxylic acid], the pIC50 was 7.66. The pIC50 values of the last two molecules are within 0.2 log units of each other.
`CC1(COc2cc(F)c(C(=O)N3CCC[C@H]3C(=O)O)cc2C2CC2)CN(C(c2ccccc2)c2cc(Cl)cc(Cl)c2)C1` (stereo partly drawn) [Example 28, (2S)-1-(5-cyclopropyl-4-((1-((3,5-dichlorophenyl)(phenyl)methyl)-3-methylazetidin-3-yl)methoxy)-2-fluorobenzoyl)pyrrolidine-2-carboxylic acid trifluoroacetic acid salt] showed a pIC50 of 7.75.
